The text below walks through data of US20130053336A1, “TREATMENT OF CHLAMYDIACEAE INFECTIONS BY MEANS OF BETA-LACTAMS” (priority 2010, published 2013).

For the assay, the system named is Chlamydia trachomatis serovar L2. Briefly: Minimum bactericidal concentration (titration of infectious ability of bacteria from treated infected cells). The assay is classed as cell-based. On the procedure:
It was first sought to verify whether other molecules of the β-lactam family could induce in vitro the same abnormal and noninfectious forms of Chlamydia trachomatis as that produced in the presence of penicillin G. Titration experiments were performed on the infectious ability of bacteria from infected cells treated with different β-lactams. Cytotoxicity and minimum bactericidal concentration (MBC) were determined for each of these molecules. It was also verified whether all of these β-lactams have bactericidal action on persistent forms of Chlamydia trachomatis produced in vitro under the effect of IFN-γ.

Molecules are shown by their SMILES. In brackets after ≈: the same amount, converted by molar mass. Read-outs that look alike come from different tables or passages of the source. A value given as a limit tells only on which side of the number the result lay.

For `CC1(C)S[C@@H]2[C@H](NC(=O)Cc3ccccc3)C(=O)N2[C@H]1C(=O)O` [Penicillin G, benzylpenicillin], the MBC by setting is: (minimum bactericidal concentration, read-out: MBC) 0.3 µM (≈ 0.1 µg/mL); (second line of the MBC cell, read-out: MBC, bound in parentheses below the value) above 0.1 µM.
